Measurements taken from paper PMC10526274, “Epithelial-Immune Cell Crosstalk Determines the Activation of Immune Cells In Vitro by the Human Cathelicidin LL-37 at Low Physiological Concentrations” (Biomolecules, 2023).
Where “and” joins values, the source holds several entries; their conditions need not be identical. Equal values may be shown once.

Test system: Caco-2/NKT cell co-culture
Experiment: Multiplex xMAP cytokine levels, Caco-2/NKT co-culture stimulated with LL-37
Format: cell-based, human
Conditions: NKT/Caco-2 co-culture, 1 µM LL-37, 24 h, n=2
Procedure: Caco-2 cell line (ATCC HTB-37) was cultured in a humidified CO2-incubator (5% CO2, 37 °C) in the complete DMEM/F12 (1:1) medium (Gibco, Waltham, MA, USA) containing 10% fetal bovine serum (FBS, Gibco) and 1X antibiotic–antimycotic solution (Gibco). To stabilize the cell phenotype, Caco-2 cells have been subcultivated three times before seeding on the filter supports. Then, Caco-2 cells were seeded at a density of 2 × 10^5 cells/cm^2 onto 24-well Millicell cell culture inserts (PC, 0.4-μm pore size, 0.6 cm^2 surface area, cat. #PIHP01250) (Millipore, Burlington, MA, USA), precoated with 0.2% bovine gelatin (Sigma-Aldrich, Saint Louis, MO, USA). After seeding, Caco-2 cells were grown in the same complete medium with re-feeding every 2–3 days until polarization of the monolayer occurred. The functional polarity of the monolayers was developed when transepithelial electrical resistance (TEER) between the apical and basolateral surfaces of the monolayers reached […] as measured by the electrical resistance system Millicell-ERS Voltohmmeter (Millipore, Burlington, MA, USA). Grown cell monolayers were used in transport and cytokine production experiments between the 21st and 29th days.
NKT cells (CD3^+CD56^+) were isolated from PBMCs using the FACSVantageDiVa cell sorter (Becton Dickinson, Franklin Lakes, NJ, USA), equipped with 405, 488, and 643 nm lasers (Supporting Materials, Figure S1). PBMCs were re-suspended in the FACS buffer (PBS containing 0.5% BSA and 2 mM EDTA) and labeled with monoclonal mouse anti-human CD3-APC (clone UCHT1, Beckman Coulter, Pasadena, CA, USA) and mouse anti-human CD56-PE/Cy7 (clone N901, Beckman Coulter) antibodies to isolate NKT cells (CD3^+CD56^+).
Sorted NKT cells were expanded by stimulation with Dynabead Human T-Expander CD3/CD28 magnetic beads (Gibco) in RPMI-1640 medium containing 10% FBS, 1X antibiotic–antimycotic solution, 100 U/mL IL-2 (Gibco), and 50 ng/mL IL-7 (Sci-Store). CD3/CD28 magnetic beads were subsequently removed with a magnet. Expanded NKT cells were washed out of the cytokines and cryopreserved.
Primary blood monocytes, moDCs, and NKT cells were seeded in 600 µL of complete RPMI-1640 with 10% Human AB serum (Capricorn Scientific, Ebsdorfergrund, Germany) and supplemented with 1X antibiotic–antimycotic solution into the wells of 24-well plates at a density of 3–7 × 10^5 cells/well 24 h before the experiment. Then, 24 h later, the medium in each well was replaced by the same medium with 1 µM of LL-37 for the sample wells or fresh medium alone for the control wells, and the permeable inserts with the Caco-2 monolayer with TEER > 400 Ω × cm^2, containing 400 μL of the complete medium in their apical chamber, were immediately placed into the appropriate wells. Also, inserts with the Caco-2 monolayer were placed in cell-free wells of 24-well plates in the same complete RPMI-1640 medium with or without 1 µM of LL-37 as controls. Cells were kept in a CO2-incubator (5% CO2, 37 °C) for another 24 h. Then, culture medium from each well was collected, centrifuged, and frozen at −70 °C.
To quantitatively evaluate a broad spectrum of analytes secreted by human cell cultures at the protein level, multiplex xMAP technology was used. […]

## LL-37: the only human cathelicidin, host defense antimicrobial peptide of 37 a.a. residues, produced by solid-phase peptide synthesis
Control 0.74
  IL-18 level: 0.52 pg/mL
Control 1.37
  MDC level: 0.58 pg/mL
Control 1.49
  IL-2 level: 1.16 pg/mL
Control 1.7
  IL-6 level: 1.09 pg/mL
Control 2.11
  FLT-3L level: 1.96 pg/mL
Control 3.74
  IL-8 level: 5.93 pg/mL
Control 4
  IFNa2 level: <3.88↓ pg/ml
Control 4.85
  IL-4 level: 6.05 pg/mL
Control 5.8
  IL-9 level: 5.8 pg/mL
Control 6.08
  IFNg level: 5.17 pg/mL
Control 7.84
  MCP-3 level: 7.84 pg/mL
Control 9.17
  IL-1a level: 10.05 pg/mL
Control 12.53
  TNFb level: 16.33 pg/mL
Control 15.69
  TNFa level: 16.61 pg/mL
Control 23.6
  sCD40L level: 23.6 pg/mL
Control 27.2, p = 0.093
  IL-22 level: 34 pg/mL and 34.37 pg/mL
Control 29.35
  PDGF-AB/BB level: 41.49 pg/mL
Control 30.74
  GROa level: 50.06 pg/mL
Control 35.81
  FGF-2 level: 41.88 pg/mL
  IL-27 level: 51.37 pg/mL
Control 36.43
  MIP-1b level: 42.84 pg/mL
Control 53.25
  MIG level: 70 pg/mL
Control 55.64
  M-GSF level: 47.83 pg/mL
Control 69.7
  GM-CSF level: 65.72 pg/mL
Control 141.7
  IP-10 level: 206.59 pg/mL
Control 179.71
  IL-13 level: 178.25 pg/mL
Control 200.08
  PDGF-AA level: 182.58 pg/mL
Control 246.49
  IL-5 level: 258.81 pg/mL
Control 399.48
  MIP-1a level: 471.29 pg/mL
Control 718.58
  RANTES level: 908.6 pg/mL
Control 951.17
  VEGFa level: 1907 pg/mL
Control <0.30
  IL-7 level: <0.30↓ pg/ml
Control <0.55
  IL-3 level: <0.55↓ pg/ml
Control <0.68
  TGF-a level: <0.68↓ pg/ml
Control <0.70
  IL-17A level: <0.70↓ pg/ml
Control <0.74
  IL-1b level: <0.74↓ pg/ml
Control <0.93
  IL-1RA level: <0.93↓ pg/ml
Control <1.35
  IL-10 level: <1.35↓ pg/ml
  MCP-1 level: 2.13 pg/mL
Control <1.54
  IL-15 level: <1.54↓ pg/ml
Control <1.60
  EGF level: 2.26 pg/mL
Control <1.71
  IL-12 (p70) level: <1.71↓ pg/ml
Control <2.32
  G-CSF level: <2.32↓ pg/ml
Control <2.91
  Eotaxin level: <2.91↓ pg/ml
Control <3.33
  IL-12 (p40) level: <3.33↓ pg/ml
Control <12.19
  IL-17F level: <12.19↓ pg/ml
Control <18.09
  Fractalkine level: 19.78 pg/mL
Control <19.43
  IL-17E/IL-25 level: <19.43↓ pg/ml
